Source: patent publication US8426403B2, “Gamma secretase modulators” (priority 2007, dated 2013)
pIC50: −log10 of the molar value.

System: Aβ42
Test: Secretase Reaction and Aβ Analysis in Whole Cells (total Aβ, Aβ40, Aβ42 by ECL sandwich immunoassay)
Type: cell-based
Conditions: HEK293 cells overexpressing APP with Swedish and London mutations
Experimental: Secretase Reaction and Aβ Analysis in Whole Cells: HEK293 cells overexpressing APP with Swedish and London mutations were treated with the specified compounds for 5 hour at 37° C. in […] of DMEM medium containing 10% fetal bovine serum. At the end of the incubation, total Aβ, Aβ40 and Aβ42 were measured using electrochemiluminescence (ECL) based sandwich immunoassays. Total Aβ was determined using a pair of antibodies TAG-WO2 and biotin-4G8, Aβ40 was identified with antibody pairs TAG-G2-10 and biotin-4G8, while Aβ42 was identified with TAG-G2-11 and biotin-4G8. The ECL signal was measured using Sector Imager 2400 (Meso Scale Discovery).

- pIC50 (Homo sapiens, 5 hour at 37° C., ECL sandwich immunoassay, read-out: Ab42 IC50): 5.95
SMILES: COc1cc(/C=C/C2=NC(=O)C(C)(c3ccc(F)cc3)N2)ccc1-n1cnc(C)c1 (centres unmarked) [Compound G4]
- Abtotal/Ab42 selectivity (total Aβ versus Aβ42): 11 fold
